Consider three molecules from patent US20140291659A1, “DIOXAANTHANTHRENE COMPOUND, LAMINATED STRUCTURE AND FORMATION METHOD THEREOF, AND ELECTRONIC DEVICE AND MANUFACTURING METHOD THEREOF” (Sony Corporation, priority 2011, published 2014).

The nature of the data set: Solubility in an organic solvent (toluene). The format is physicochemical. The settings on record: for Solubility: grams of PXX compound dissolving in 10 grams of toluene. How it is done:
The melting point and the mesophase transition temperature of the PXX compound can be determined by TG-DTA (thermogravimetry/differential thermal analysis) and DSC (differential scanning calorimetry). Further, solubility in an organic solvent was measured. […] In Table 1, the mesophase transition temperature is denoted as “transition temperature”. […]

Turning to `CC(C)c1ccc(-c2ccc3oc4ccc5c(-c6ccc(C(C)C)cc6)ccc6oc7ccc2c3c7-c4c65)cc1` [Comparative Example 2D], the Solubility is 0.37 g. Moreover, the “Amount dissolved in toluene” value (in 100 grams of toluene) was 0.37 grams. `CC(C)Cc1ccc(-c2ccc3oc4ccc5c(-c6ccc(CC(C)C)cc6)ccc6oc7ccc2c3c7-c4c65)cc1` [Working Example 2A] came in with a Solubility of 1.5 g. The molecule `CC(C)CCc1ccc(-c2ccc3oc4ccc5c(-c6ccc(CCC(C)C)cc6)ccc6oc7ccc2c3c7-c4c65)cc1` [Working Example 2B] came in with a Solubility of 1.3 g.
